Converted amounts (≈) assume the structure as drawn. “And” between values parts separate entries of the source, which are not always exact repeats. Equal entries are not always repeated. Where two headings read alike, the source gives them in different places.
Tests used:
[1] = Caco-2 transport assay (Peff); conditions: human
[2] = Solubility of Q-markers in dissolution media, dose number D0; conditions: for solubility at 24 h: thermodynamic from solid
Procedure: The solubility of the compounds was determined at physiologically relevant pH values (0.1 M of HCl, pH 1.2; acetate buffer, pH 4.5; and phosphate buffer, pH 6.8) as those in dissolution medium, by adding excess compounds to specific medium, vortexing for 30 s, and shaking for 24 h at 37 °C and 120 rpm using a constant temperature shaker. The supernatant was then diluted with an appropriate amount of methanol, and the concentration of each compound was determined using the HPLC method described in Section 3.2. The solubility was evaluated using the dose (D0) values [48], which describe the relationship between solubility and maximum dose strength according to Equation (1). […] (1) D0=M0/V0/CS
M0 was the highest dose of each component under single administration, it should be noted that since there is no sense of the maximum oral dose for the ingredients in herbal preparation, the content of each component in a single dose of the preparation is taken as the maximum administered dose.

[3] = Unit impulse response (UIR) fitting of pharmacokinetic data; conditions: best-fitted UIR, Akaike model
From the text: (§1) The Phoenix WinNonlin IVIVC tool was utilized to evaluate the relationship between in vivo drug dissolution rate and blood drug concentration, which utilizes the Unit Impulse Response (UIR) function for this purpose. By using intravenous administration as the input for the unit impulse response, the influence of drug absorption can be eliminated. The obtained UIR function will be utilized for the deconvolution of pharmacokinetic data to obtain the curve of cumulative drug absorption over time [50]. (8) Y(t)=A×exp[Alpha×(t×Ka−tlag)] in which Y(t) is unit impulse response, A is the coefficient value, Alpha is the exponential value, Ka is the absorption rate constant, tlag is the lag time.

[4] = Stability of Q-markers in plasma; design: species or system dog; conditions: n = 6
Procedure: The standard solutions of tetrahydropalmatine, corydaline, protopin, α-allocryptopine, and byakangelicin were prepared by dissolving them in acetonitrile to obtain a mixed standard stock solution, which was further diluted with acetonitrile to prepare a series of different concentration gradient mixed standard solutions. An internal standard solution of 25 ng/mL was prepared from betamethasone solution (500 μg/mL) diluted with acetonitrile. Blank dog blood was collected through intravenous blood sampling, and plasma was obtained by centrifugation. To prepare the standard plasma sample, 25 μL of the mixed standard solution was added to 100 μL of blank plasma, and 400 μL of acetonitrile was added and vortexed for protein precipitation. The supernatant was acquired by centrifugation and blown dry with nitrogen. Then, 100 μL of acetonitrile was added to the dried supernatant, and the resulting solution was mixed to gain the standard plasma sample. Different mixed standard solution including a serial of concentrations of tetrahydropalmatine: 0.625–25 ng/mL, corydaline: 0.625–25 ng/mL, protopin: 0.1–4 ng/mL, α-allocryptopine: 0.1–4 ng/mL, byakangelicin: 18.75–750 ng/mL were applied to prepare standard plasma sample and quality control (QC) samples of plasma as follows: 1.25, 5, and 20 ng/mL for tetrahydropalmatine and corydaline, […], and 37.5, 150, and 600 ng/mL for byakangelicin.

[5] = dog, in vivo
From the text: as §1

[6] = dog, in vivo; remark: listed apart in the source
From the text: In order to further apply the identified in vivo correlated dissolution conditions to different batches of YZTs, another brand of YZTs was selected for external validation of the dissolution conditions and IVIVC model results. The dissolution data of different brands in the identified media were input into the established IVIVC model to obtain the predicted blood concentration–time curve and to compare the PE% between the predicted value and the actual value.

[7] = 0.1 M HCl, 37 °C, pH 1.2, simulated gastric fluid
[8] = acetate buffer, 37 °C, pH 4.5, aqueous buffer
[9] = phosphate buffer, 37 °C, pH 6.8, aqueous buffer
[10] = D0 = M0/V0/Cs, V0 = 250 mL, content of a single dose of YZTs

COc1c2ccoc2c(OC[C@@H](O)C(C)(C)O)c2oc(=O)ccc12 [Byakangelicin, byakangelicin]
Papp at 120 min [1]: 8.95 ×10⁻⁶ cm/s
solubility at 24 h [2, 7]: 2660 ± 56 µg/mL (≈ 7960 µM)
solubility at 24 h [2, 8]: 1290 ± 87.4 µg/mL (≈ 3860 µM)
solubility at 24 h [2, 9]: 7.63 ± 1.27 µg/mL (≈ 22.8 µM)
solubility at 24 h ([2]; water): 35.9 ± 5.85 µg/mL (≈ 107 µM)
UIR parameter A1, Estimate [3]: 0.02 ng/mL
UIR parameter Ka, Estimate [3]: 2.23 h⁻¹
UIR parameter Tlag, Estimate [3]: 0.45 h
UIR parameter alpha1, Estimate [3]: 1.18 h⁻¹
Relative content ([4]; 37.5 ng/mL, 6℃-6h): 90.02%
Relative content ([4]; 37.5 ng/mL, 20℃-24h): 93.00%
Relative content ([4]; 37.5 ng/mL, Freeze-thaw thrice): 92.93%
Relative content ([4]; 150 ng/mL, 6℃-6h): 93.99%
Relative content ([4]; 150 ng/mL, 20℃-24h): 93.39%
Relative content ([4]; 150 ng/mL, Freeze-thaw thrice): 93.32%
Relative content ([4]; 600 ng/mL, 6℃-6h): 88.54%
Relative content ([4]; 600 ng/mL, 20℃-24h): 89.73%
Relative content ([4]; 600 ng/mL, Freeze-thaw thrice): 89.66%

COc1cc2c(cc1OC)[C@H]1[C@@H](C)c3ccc(OC)c(OC)c3CN1CC2 [Corydaline, corydaline]
Papp at 120 min [1]: 3.94 ×10⁻⁶ cm/s
solubility at 24 h [2, 7]: > 2380 µg/mL
solubility at 24 h [2, 8]: > 2380 µg/mL
solubility at 24 h [2, 9]: 2380 ± 348 µg/mL (≈ 6460 µM)
solubility at 24 h ([2]; water): 5.03 ± 0.85 µg/mL (≈ 13.6 µM)
UIR parameter A1, Estimate [3]: 0.05 ng/mL
UIR parameter Ka, Estimate [3]: 1.46 h⁻¹
UIR parameter Tlag, Estimate [3]: 0.44 h
UIR parameter alpha1, Estimate [3]: 1.42 h⁻¹
Relative content ([4]; 1.25 ng/mL, 6℃-6h): 98.22%
Relative content ([4]; 1.25 ng/mL, 20℃-24h): 98.02%
Relative content ([4]; 1.25 ng/mL, Freeze-thaw thrice): 97.95%
Relative content ([4]; 5 ng/mL, 6℃-6h): 93.89%
Relative content ([4]; 5 ng/mL, 20℃-24h): 102.35%
Relative content ([4]; 5 ng/mL, Freeze-thaw thrice): 102.28%
Relative content ([4]; 20 ng/mL, 6℃-6h): 107.01%
Relative content ([4]; 20 ng/mL, 20℃-24h): 100.80%
Relative content ([4]; 20 ng/mL, Freeze-thaw thrice): 100.73%

COc1cc2c(cc1OC)[C@@H]1Cc3ccc(OC)c(OC)c3CN1CC2 [Tetrahydropalmatine, tetrahydropalmatine]
Papp at 120 min [1]: 3.76 ×10⁻⁶ cm/s
solubility at 24 h [2, 7]: 655 ± 43.3 µg/mL (≈ 1840 µM)
solubility at 24 h [2, 8]: 2670 ± 539 µg/mL (≈ 7500 µM)
solubility at 24 h [2, 9]: 19.7 ± 1.87 µg/mL (≈ 55.4 µM)
solubility at 24 h ([2]; water): 18.9 ± 1.57 µg/mL (≈ 53.1 µM)
UIR parameter A1, Estimate ([5]; beagle): 0.04 ng/mL
UIR parameter Ka, Estimate ([5]; beagle): 1.28 h⁻¹
UIR parameter Tlag, Estimate ([5]; beagle): 0.40 h
UIR parameter alpha1, Estimate ([5]; beagle): 1.30 h⁻¹
Relative content ([4]; 1.25 ng/mL, 6℃-6h): 94.31%
Relative content ([4]; 1.25 ng/mL, 20℃-24h): 100.16%
Relative content ([4]; 1.25 ng/mL, Freeze-thaw thrice): 100.09%
Relative content ([4]; 5 ng/mL, 6℃-6h): 99.79%
Relative content ([4]; 5 ng/mL, 20℃-24h): 102.60%
Relative content ([4]; 5 ng/mL, Freeze-thaw thrice): 102.53%
Relative content ([4]; 20 ng/mL, 6℃-6h): 97.35%
Relative content ([4]; 20 ng/mL, 20℃-24h): 100.19%
Relative content ([4]; 20 ng/mL, Freeze-thaw thrice): 100.12%

COc1ccc2c(c1OC)CN(C)CCc1cc3c(cc1C(=O)C2)OCO3 [α-allocryptopine]
Papp at 120 min [1]: 13.4 ×10⁻⁶ cm/s
solubility at 24 h [2, 7]: 48.7 ± 4.08 µg/mL (≈ 132 µM)
D0, 0.1 M HCl [2, 10]: 0.5441 and <1
D0, Acetate Buffer [2, 10]: 0.5786 and <1
D0, Phosphate Buffer [2, 10]: 0.5928 and <1
solubility at 24 h [2, 8]: 45.8 ± 2.56 µg/mL (≈ 124 µM)
solubility at 24 h [2, 9]: 44.7 ± 2.17 µg/mL (≈ 121 µM)
solubility at 24 h ([2]; water): 2380 ± 521 µg/mL (≈ 6430 µM)
UIR parameter A1, Estimate [3]: 0 ng/mL
UIR parameter Ka, Estimate [3]: 5.65 h⁻¹
UIR parameter Tlag, Estimate [3]: 0.67 h
UIR parameter alpha1, Estimate [3]: 1.13 h⁻¹
Relative content ([4]; 0.2 ng/mL, 6℃-6h): 91.78%
Relative content ([4]; 0.2 ng/mL, 20℃-24h): 100.07%
Relative content ([4]; 0.2 ng/mL, Freeze-thaw thrice): 100.00%
Relative content ([4]; 0.5 ng/mL, 6℃-6h): 100.95%
Relative content ([4]; 0.5 ng/mL, 20℃-24h): 101.06%
Relative content ([4]; 0.5 ng/mL, Freeze-thaw thrice): 100.99%
Relative content ([4]; 3.2 ng/mL, 6℃-6h): 107.49%
Relative content ([4]; 3.2 ng/mL, 20℃-24h): 98.70%
Relative content ([4]; 3.2 ng/mL, Freeze-thaw thrice): 98.63%

protopine
Solubility, 0.1 M HCl (pH 1.2): 4700 ± 384 µg/mL
Solubility, Acetate Buffer (pH 4.5): 5403 ± 378 µg/mL
Solubility, Phosphate Buffer (pH 6.8): 535 ± 17.2 µg/mL
Observed AUC [6]: 205.15
Observed Cmax [6]: 1.15 ng/mL
Predicted AUC [6]: 218.10
Predicted Cmax [6]: 1.26 ng/mL
UIR parameter A1, Estimate [5]: 0 ng/mL
UIR parameter Ka, Estimate [5]: 1.36 h⁻¹
UIR parameter Tlag, Estimate [5]: 0.44 h
UIR parameter alpha1, Estimate [5]: 1.35 h⁻¹
In Vitro Caco-2 Cell Permeability (Peff) (Caco-2 cells): 7.49 ± 0.0803 ×10⁻⁶ cm/s
Relative content ([4]; 0.2 ng/mL, 6℃-6h): 99.33%
Relative content ([4]; 0.2 ng/mL, 20℃-24h): 96.07%
Relative content ([4]; 0.2 ng/mL, Freeze-thaw thrice): 96.00%
Relative content ([4]; 0.5 ng/mL, 6℃-6h): 93.89%
Relative content ([4]; 0.5 ng/mL, 20℃-24h): 100.60%
Relative content ([4]; 0.5 ng/mL, Freeze-thaw thrice): 100.53%
Relative content ([4]; 3.2 ng/mL, 6℃-6h): 103.43%
Relative content ([4]; 3.2 ng/mL, 20℃-24h): 101.63%
Relative content ([4]; 3.2 ng/mL, Freeze-thaw thrice): 101.56%

From PMC11359531, “Establishment of Dissolution Test Method for Multi-Components in Traditional Chinese Medicine Preparations Based on In Vitro–In Vivo Correlation” (Pharmaceuticals, 2024)
